Source: ChEMBL document CHEMBL5352446, “Synthesis and biological evaluation of a novel c-Myc inhibitor against colorectal cancer via blocking c-Myc/Max heterodimerization and disturbing its DNA binding” (Eur J Med Chem, 2022)
Calls of active or inactive are those of the source. The rule behind the calls is not given here.

Columns and labels:
HT-29 [1] = assay: Induction of apoptosis in human HT-29 cells assessed as early apoptotic cells at 1.25 uM incubated for 24 hrs by FITC Annexin-V and PI staining based flow cytometry analysis (reference value: 2.15%); format: functional
HT-29 [2] = assay: Induction of apoptosis in human HT-29 cells assessed as early apoptotic cells at 10 uM incubated for 24 hrs by FITC Annexin-V and PI staining based flow cytometry analysis (reference value: 2.15%); format: functional
HT-29 [3] = assay: Induction of apoptosis in human HT-29 cells assessed as viable cells at 10 uM incubated for 24 hrs by FITC Annexin-V and PI staining based flow cytometry analysis (reference value: 96.94%); format: functional; details: read-out: Activity
HT-29 [4] = assay: Induction of apoptosis in human HT-29 cells assessed as viable cells at 5 uM incubated for 24 hrs by FITC Annexin-V and PI staining based flow cytometry analysis (reference value: 96.94%); format: functional; details: read-out: Activity
HT-29 [5] = assay: Induction of cell cycle arrest in human HT-29 cells assessed as accumulation of cells at S phase at 1.25 uM incubated for 24 hrs by propidium iodide staining based flow cytometry analysis (reference value: 12.01 %); format: functional
HT-29 [6] = assay: Induction of cell cycle arrest in human HT-29 cells assessed as accumulation of cells at G2 phase at 2.5 uM incubated for 24 hrs by propidium iodide staining based flow cytometry analysis (reference value: 16.33 %); format: functional
HCT-116 [7] = assay: cells; details: Homo sapiens, HCT-116, 72 h
Description: Antiproliferative activity against human HCT-116 cells incubated for 72 hrs by MTT assay

HT-29 [8] = assay: Inhibition of colony formation in human HT-29 cells measured after 14 days by crystal violet staining based assay; format: functional, cell-based; details: dose 0.25-2 µM, time 14.0 day
HCT-116 [9] = assay: Inhibition of colony formation in human HCT-116 cells measured after 14 days by crystal violet staining based assay; format: functional, cell-based; details: dose 0.25-2 µM, time 14.0 day
HT-29 [10] = assay: Induction of apoptosis in human HT-29 cells assessed as upregulation of cleaved caspase 3 expression incubated for 24 hrs by Western blot analysis; format: functional, cell-based; details: dose 2.5-10 µM
HT-29 [11] = assay: Induction of apoptosis in human HT-29 cells assessed as late apoptotic cells at 5 uM incubated for 24 hrs by FITC Annexin-V and PI staining based flow cytometry analysis (reference value: 0.78%); format: functional
HT-29 [12] = assay: Induction of cell cycle arrest in human HT-29 cells assessed as accumulation of cells at G2 phase at 1.25 uM incubated for 24 hrs by propidium iodide staining based flow cytometry analysis (reference value: 16.33 %); format: functional
HT-29 [13] = assay: Induction of cell cycle arrest in human HT-29 cells assessed as accumulation of cells at S phase at 0.625 uM incubated for 24 hrs by propidium iodide staining based flow cytometry analysis (reference value: 12.01 %); format: functional
HCT-116 [14] = assay: Downregulation of c-Myc expression in human HCT-116 cells at 10 uM incubated for 24 hrs by Western blot analysis; format: functional, cell-based
HT-29 [15] = assay: Induction of apoptosis in human HT-29 cells assessed as late apoptotic cells at 10 uM incubated for 24 hrs by FITC Annexin-V and PI staining based flow cytometry analysis (reference value: 0.78%); format: functional
HT-29 [16] = assay: Induction of apoptosis in human HT-29 cells assessed as viable cells at 2.5 uM incubated for 24 hrs by FITC Annexin-V and PI staining based flow cytometry analysis (reference value: 96.94%); format: functional; details: read-out: Activity
[17] = Toxicity in BALB/c mouse xenografted with human HT-29 cells assessed as spleen damage at 40 mg/kg, ip measured after 21 days by H and E staining based assay; format: organism-based; details: in vivo, 504 h, time 21 day
[18] = Toxicity in BALB/c mouse xenografted with human HT-29 cells assessed as liver damage at 40 to 80 mg/kg, ip measured after 21 days by H and E staining based assay; format: organism-based; details: in vivo, 504 h, dose 40-80 mg/kg, time 21 day
HT-29 [19] = assay: Antitumor activity against human HT-29 cells xenografted in BALB/c mouse assessed as tumor growth inhibition at 80 mg/kg, ip administered daily for 3 weeks by caliper method; format: functional; details: HT-29, 504 h, read-out: TGI
L02 = assay: Cytotoxicity against human L02 cells incubated for 72 hrs by MTT assay; format: toxicity, cell-based; details: l02, 72 h
HT-29 [20] = assay: Induction of cell cycle arrest in human HT-29 cells assessed as accumulation of cells at S phase at 5 uM incubated for 24 hrs by propidium iodide staining based flow cytometry analysis (reference value: 12.01 %); format: functional
HT-29 [21] = assay: Induction of cell cycle arrest in human HT-29 cells assessed as accumulation of cells at G1 phase at 0.625 uM incubated for 24 hrs by propidium iodide staining based flow cytometry analysis (reference value: 65.37 %); format: functional
HT-29 [22] = assay: Inhibition of cell migration in human HT-29 cells incubated for 48 hrs by wound healing analysis; format: functional, cell-based
HCT-8 = assay: Antiproliferative activity against human HCT-8 cells incubated for 72 hrs by MTT assay; format: functional, cell-based; details: HCT-8, 72 h
HT-29 [23] = assay: Induction of apoptosis in human HT-29 cells assessed as necrotic cells at 1.25 uM incubated for 24 hrs by FITC Annexin-V and PI staining based flow cytometry analysis (reference value: 0.13%); format: functional
HT-29 [24] = assay: Downregulation of c-Myc expression in human […] cells incubated for 24 hrs by Western blot analysis; format: functional, cell-based; details: dose 2.5-10 µM
HT-29 [25] = assay: Induction of apoptosis in human HT-29 cells assessed as late apoptotic cells at 0.625 uM incubated for 24 hrs by FITC Annexin-V and PI staining based flow cytometry analysis (reference value: 0.78%); format: functional
HT-29 [26] = assay: Antitumor activity against human HT-29 cells xenografted in ip dosed BALB/c mouse assessed as tumor growth inhibition administered daily for 3 weeks by caliper method; format: functional, organism-based; details: dose 40-80 mg/kg
HT-29 [27] = assay: Induction of apoptosis in human HT-29 cells assessed as necrotic cells at 5 uM incubated for 24 hrs by FITC Annexin-V and PI staining based flow cytometry analysis (reference value: 0.13%); format: functional
[28] = Toxicity in BALB/c mouse xenografted with human HT-29 cells assessed as body weight loss at 40 to 80 mg/kg, ip measured after 21 days; format: organism-based; details: in vivo, 504 h, dose 40-80 mg/kg, time 21 day
HCT-116 [29] = assay: Inhibition of cell migration in human HCT-116 cells incubated for 48 hrs by wound healing analysis; format: functional, cell-based
Homo sapiens [30] = species: Homo sapiens; assay: (§1) Inhibition of human Myc (353 to 439 residues)/Max(S) (151 residues) expressed in Escherichia coli BL21(DE3) binding to biotinylated double-stranded DNA oligonucleotide 5'-CACCCGGTCACTGGCCTACAC-3' (unknown origin) preincubated for 90 mins followed by oligonucleotide addition for 25 mins by EMSA; details: time 115.0 min
Homo sapiens [31] = species: Homo sapiens; assay: as §1, with “c-Myc” for “Myc”, “origin) at 20 uM” for “origin)”; details: time 115.0 min
HT-29 [32] = assay: Induction of apoptosis in human HT-29 cells assessed as upregulation of cleaved PARP expression incubated for 24 hrs by Western blot analysis; format: functional, cell-based; details: dose 2.5-10 µM
HCT-116 [33] = assay: Downregulation of c-Myc expression in human HCT-116 cells incubated for 24 hrs by Western blot analysis; format: functional, cell-based; details: dose 2.5-10 µM

In the case of `COc1cc(Oc2ccc(Nc3ccc(CCCO)cc3)cc2)cc(OC)c1CNCCc1ccc(C(F)(F)F)cc1`, the Activity (HT-29 [1]) is reported as 12.78%, the Activity (HT-29 [2]) is reported as 29.06% and the viability at 10 µM (HT-29 [3]) is reported as 55.6%. It also gave a viability at 5 µM (HT-29 [4]) of 69%, an Activity (HT-29 [5]) of 13.16% and an Activity (HT-29 [6]) of 8.23%. For the same compound, the IC50 (HCT-116 [7]) was 640 nM, the inhibition (HT-29 [8]) was “Dose-Dependent Effect” and the inhibition (HCT-116 [9]) was “Dose-Dependent Effect”. The Activity (HT-29 [10]) was “Dose-Dependent Effect”, the Activity (HT-29 [11]) was 7.67% and the Activity (HT-29 [12]) was 11.24%. The Activity (HT-29 [13]) was 14.41%, the Activity (HCT-116 [14]) was “Active” and the Activity (HT-29 [15]) was 13.52%. For the same compound, the viability at 2.5 µM (HT-29 [16]) was 69.6%, the Activity [17] was “Toxic” and the Activity [18] was “Non-Toxic”. The inhibition in vivo at 80 mg/kg (HT-29 [19]) was 78.4%, the Activity (L02) was “Non-Toxic” and the Activity (HT-29 [20]) was 12.16%. The Activity (HT-29 [21]) was 71.78%, the inhibition (HT-29 [22]) was “Active” and the IC50 (HCT-8) was 3120 nM. For the same compound, the Activity (HT-29 [23]) was 1.72%, the Activity (HT-29 [24]) was “Dose-Dependent Effect” and the Activity (HT-29 [25]) was 3.14%. For the same compound, the Activity (HT-29 [26]) was “Dose-Dependent Effect”, the Activity (HT-29 [27]) was 1.29% and the Activity [28] was “Non-Toxic”. For the same compound, the inhibition (HCT-116 [29]) was “Active”, the inhibition (Homo sapiens [30]) was “Dose-Dependent Effect” and the inhibition (Homo sapiens [31]) was 100%. The Activity (HT-29 [32]) was “Dose-Dependent Effect” and the Activity (HCT-116 [33]) was “Dose-Dependent Effect”.
